# pIC50, pKd: −log10 of the molar value. Where a SMILES comes first, the peptide text is derived from it. Bridges are numbered along the chain shown (N, C = ends). [ ]: non-standard residue; d: D form. hPhe(3-Cl-4-CF3) = N[C@@H](CCc1ccc(C(F)(F)F)c(Cl)c1)C(=O)O; NPrPhe(4-CF3) = CCCN[C@@H](Cc1ccc(C(F)(F)F)cc1)C(=O)O; NMeGly(cPent) = CN[C@H](C(=O)O)C1CCCC1; Pro(4,4-F2) = O=C(O)[C@@H]1CC(F)(F)CN1; NMeL = CN[C@@H](CC(C)C)C(=O)O; Aze = O=C(O)[C@@H]1CCN1; Ac4c = NC1(C(=O)O)CCC1; Sar = CNCC(=O)O
# Legend:
# [1] = system: human lung cancer strain NCI-H441; format: cell-based
# Summary of the method: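 Readout: […] after the ATP-based reagent. Compound: serial dilutions in dimethyl sulfoxide.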
# HRAS wild-type protein = HRAS wild-type protein (Homo sapiens, UniProt P01112); assay: Binding to HRAS by surface plasmon resonance (SPR), KD and KD ratio to KRAS
# Summary of the method: (§1)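 Affinity is measured by surface plasmon resonance at 30°C against captured, GDP-loaded RAS carrying a biotinylated Avi tag. Compounds are titrated by single-cycle kinetics, and KD comes from a 1:1 fit.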
# [2] = molecular target: GDP-bound NRAS wild-type protein (Homo sapiens, UniProt P01111); assay: Binding to NRAS by surface plasmon resonance (SPR), KD and KD ratio to KRAS
# Summary of the method: as §1
# [3] = molecular target: GDP-bound KRAS wild-type protein (Homo sapiens, UniProt P01116); assay: Binding to KRAS by surface plasmon resonance (SPR), dissociation constant KD
# Summary of the method: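 Read-out is KD from 1:1 fitting of single-cycle kinetics sensorgrams, blank-cycle and reference-surface corrected. Proteins were GDP-loaded, biotinylated Avi-fusions freshly captured each cycle at roughly 100–300 RU. Runs were at 30°C in HBS pH 7.4 with MgCl2, GDP and 4% DMSO.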
# [4] = ratio of KD for HRAS wild-type protein to KD for KRAS
# [5] = ratio of KD for GDP-bound NRAS wild-type protein to KD for KRAS
# [6] = ratio of the KD value with respect to HRAS wild-type protein to the KD value with respect to KRAS
# [7] = ratio of the KD value with respect to GDP-bound NRAS wild-type protein to the KD value with respect to KRAS
# [8] = Single Cycle Kinetics, 1:1 binding model
# [9] = ratio of KD value for HRAS wild-type protein to KD value for KRAS (SPR)
# [10] = ratio of KD value for GDP-bound NRAS wild-type protein to KD value for KRAS (SPR)
# Chain of GDP-bound NRAS wild-type protein (P01111 whole entry): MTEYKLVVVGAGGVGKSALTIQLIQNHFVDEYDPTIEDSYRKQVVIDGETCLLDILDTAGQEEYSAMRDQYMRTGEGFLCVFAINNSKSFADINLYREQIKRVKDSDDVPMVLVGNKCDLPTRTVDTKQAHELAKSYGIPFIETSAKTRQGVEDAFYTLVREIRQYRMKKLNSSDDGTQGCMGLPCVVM
# Chain of GDP-bound KRAS wild-type protein (P01116 1-188 isoform P01116-2): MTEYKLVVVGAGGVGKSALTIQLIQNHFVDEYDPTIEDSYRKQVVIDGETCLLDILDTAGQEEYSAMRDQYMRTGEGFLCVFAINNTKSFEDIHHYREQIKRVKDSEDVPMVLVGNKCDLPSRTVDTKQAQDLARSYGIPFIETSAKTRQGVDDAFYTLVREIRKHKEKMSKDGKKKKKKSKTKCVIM
# Chain of HRAS wild-type protein (P01112 whole entry): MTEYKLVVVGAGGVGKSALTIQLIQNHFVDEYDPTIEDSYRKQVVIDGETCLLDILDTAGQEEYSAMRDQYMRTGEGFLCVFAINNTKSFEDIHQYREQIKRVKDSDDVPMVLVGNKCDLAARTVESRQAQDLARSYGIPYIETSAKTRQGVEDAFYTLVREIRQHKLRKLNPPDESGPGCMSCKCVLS
pIC50 [1],pKd ([3]; Single Cycle Kinetics),"pKd [3, 8]",pKd ([3]; 1:1 binding model),SMILES,HRAS /KRAS (HRAS wild-type protein; [4]),"NRAS /KRAS [2, 5]",HRAS /KRAS (HRAS wild-type protein; [6]),"NRAS /KRAS [2, 7]",HRAS /KRAS (HRAS wild-type protein; [9]),"NRAS /KRAS [2, 10]"
7.72,,,9.28,CCO[C@@H]1C[C@H]2C(=O)NC3(CC(C)(C)C3)C(=O)N(C)[C@@H](C3CCCC3)C(=O)N(C)[C@H](C(=O)N(C)C)CC(=O)N(C)[C@@H]([C@@H](C)OC)C(=O)N[C@@H]([C@@H](C)CC)C(=O)N(C3CC3)CC(=O)N(C)[C@H]3C/C=C\CCN(C3=O)[C@@H](Cc3ccc(C)cc3)C(=O)N(C)CC(=O)N[C@@H](CCc3ccc(C(F)(F)F)c(OC)c3)C(=O)N2C1 [PP3210],B (a compound having 3 or more and less than 10 is denoted as B),A (a compound having 10 or more and less than 20 is denoted as A),,,,
7.04,,9.64,,CC[C@@H]1C[C@H]2C(=O)NC3(CCCC3)C(=O)N(C)[C@@H](C3CCCC3)C(=O)N(C)[C@H](C(=O)N(C)C)CC(=O)N(C)[C@@H](CC(C)C)C(=O)N[C@@H]([C@@H](C)CC)C(=O)N(C)CC(=O)N(C)[C@H]3C/C=C\CCN(C3=O)[C@@H](Cc3ccc(C)cc3)C(=O)N(C)CC(=O)N[C@@H](CCc3cc(F)c(C(F)(F)F)c(F)c3)C(=O)N2C1 [PP2191],,,B (a compound having 3 or more and less than 10 is denoted as B),A (a compound having 10 or more and less than 20 is denoted as A),,
7.99,,9.96,,CCC[C@H]1C(=O)N[C@@H]([C@@H](C)CC)C(=O)N(C)CC(=O)N(C)[C@H]2C/C=C\CCN(C2=O)[C@@H](Cc2ccc(C)cc2)C(=O)N(C)CC(=O)N[C@@H](CCc2cc(F)c(C(F)(F)F)c(F)c2)C(=O)N2C[C@@H](C)C[C@H]2C(=O)NC2(CCC2)C(=O)N(C)[C@@H](C2CCCC2)C(=O)N(C)[C@H](C(=O)N(C)CC)CC(=O)N1C [PP1860],,,,,A (a compound having 10 or more and less than 20 is denoted as A),A (a compound having 10 or more and less than 20 is denoted as A)
7.62,,9.54,,CCCOC[C@H]1C(=O)N[C@@H]([C@@H](C)CC)C(=O)N(C)CC(=O)N(C)[C@H]2C/C=C\CCN(C2=O)[C@@H](Cc2ccc(C)cc2)C(=O)N(C)CC(=O)N[C@@H](CCc2cc(F)c(C(F)(F)F)c(F)c2)C(=O)N2C[C@H](CC)C[C@H]2C(=O)NC2(CCCC2)C(=O)N(C)[C@@H](C2CCCC2)C(=O)N(C)[C@H](C(=O)N(C)C)CC(=O)N1C [PP2218],,,A (a compound having 10 or more and less than 20 is denoted as A),A (a compound having 10 or more and less than 20 is denoted as A),,

# Continued, compound first:
SMILES,pIC50 [1],pKd ([3]; Single Cycle Kinetics),"pKd [3, 8]",pKd ([3]; 1:1 binding model),HRAS /KRAS (HRAS wild-type protein; [4]),"NRAS /KRAS [2, 5]",HRAS /KRAS (HRAS wild-type protein; [6]),"NRAS /KRAS [2, 7]",HRAS /KRAS (HRAS wild-type protein; [9]),"NRAS /KRAS [2, 10]"
CCO[C@@H]1C[C@H]2C(=O)NC3(CCCC3)C(=O)N(C)[C@@H](C3CCCC3)C(=O)N(C)[C@H](C(=O)N3CCOCC3)CC(=O)N(C)[C@@H](CC(C)C)C(=O)N[C@@H]([C@@H](C)CC)C(=O)N(C)CC(=O)N(C)[C@H]3CCCCCN(C3=O)[C@@H](Cc3ccc(F)cc3)C(=O)N(C)CC(=O)N[C@@H](CCc3ccc(C(F)(F)F)c(Cl)c3)C(=O)N2C1 [PP0965],7.31,9.24,,,B (a compound having 3 or more and less than 10 is denoted as B),B (a compound having 3 or more and less than 10 is denoted as B),,,,
CC[C@H](C)[C@@H]1NC(=O)[C@H](CC(C)C)N(C)C(=O)C[C@@H](C(=O)N2CCOCC2)N(C)C(=O)[C@H](C2CCCC2)N(C)C(=O)C2(CCCC2)NC(=O)[C@@H]2CCCN2C(=O)[C@H](CCc2ccc(C(F)(F)F)c(Cl)c2)NC(=O)CN(C)C(=O)[C@H](Cc2ccc(F)cc2)N2C/C=C\CC[C@@H](C2=O)N(C)C(=O)CN(C)C1=O [PP0607],6.92,,9.01,,,,B (a compound having 3 or more and less than 10 is denoted as B),C (A compound having a KD ratio of 0.1 or more and less than 3 is denoted as C),,
"CCCN1C(=O)CN(C)C(=O)[C@@H]2CCN2C(=O)[C@H]([C@@H](C)CC)NC(=O)[C@H](CC(C)C)N(C)C(=O)C[C@@H](C(=O)N(C)C)NC(=O)[C@H](C2CCCC2)N(C)C(=O)C2(CCC2)NC(=O)[C@@H]2CC(F)(F)CN2C(=O)[C@H](CCc2ccc(C(F)(F)F)c(Cl)c2)NC(=O)CN(C)C(=O)[C@@H]1Cc1ccc(C(F)(F)F)cc1 [PP0376] ([NMeL]I[Aze][Sar][NPrPhe(4-CF3)][Sar][hPhe(3-Cl-4-CF3)][Pro(4,4-F2)][Ac4c][NMeGly(cPent)]D-NMe2; lactam N-11)",6.94,,,8.70,B (a compound having 3 or more and less than 10 is denoted as B),B (a compound having 3 or more and less than 10 is denoted as B),,,,
CCC[C@H]1C(=O)N[C@@H]([C@@H](C)CC)C(=O)N(C)CC(=O)N(C)[C@H]2C/C=C\CCN(C2=O)[C@@H](Cc2ccc(C)cc2)C(=O)N(C)CC(=O)N[C@@H](CCc2ccc(C(F)(F)F)c(OC)c2)C(=O)N2C[C@@H](C)C[C@H]2C(=O)NC2(CCC2)C(=O)N(C)[C@@H](C2CCCC2)C(=O)N(C)[C@H](C(=O)N(C)CC)CC(=O)N1C [PP1840],7.57,,9.92,,,,,,B (a compound having 3 or more and less than 10 is denoted as B),A (a compound having 10 or more and less than 20 is denoted as A)

# From EP4603105A1, “PHARMACEUTICAL COMPOSITION CONTAINING CYCLIC COMPOUND HAVING SELECTIVE KRAS INHIBITORY EFFECT AGAINST HRAS AND NRAS” (CHUGAI SEIYAKU KABUSHIKI KAISHA, priority 2022, dated 2024)
